Test results from patent US8802895B2, “Amide derivatives of benzene-sulfonanilide, pharmaceutical composition thereof and method for cancer treatment using the same” (Cleveland State University, priority 2010, dated 2014).

How the values were obtained:
Assay type in all cases: cell-based
MDA-MB-468 = test: NCIDTP 60 cancer cell lines screening, Breast Cancer panel
LOX IMVI = test: NCIDTP 60 cancer cell lines screening, Melanoma panel
CAKI-1 = test: NCIDTP 60 cancer cell lines screening, Renal Cancer panel
786-0 = test: as above
UO-31 = test: as above
MDA-MB-435 = test: NCIDTP 60 cancer cell lines screening, Melanoma panel
RXF 393 = test: NCIDTP 60 cancer cell lines screening, Renal Cancer panel
SN12C = test: as above
SK-OV-3 = test: NCIDTP 60 cancer cell lines screening, Ovarian Cancer panel
NCI-H226 = test: NCIDTP 60 cancer cell lines screening, Non-Small Cell Lung Cancer panel
SW-620 = test: NCIDTP 60 cancer cell lines screening, Colon Cancer panel
cells = test: Primary mechanism study: cell viability with compound #10 and 2-APB (FIG. 10); conditions: with and without 2-APB; cell viability after 48 hours
Method: For the experiment, 2-APB was first added. […] The control cells were treated with same amount of DMSO to carry the drugs. The cell viability was evaluated after 48 hours.

SK-MEL-5 = test: NCIDTP 60 cancer cell lines screening, Melanoma panel
ACHN = test: NCIDTP 60 cancer cell lines screening, Renal Cancer panel
UACC-62 = test: NCIDTP 60 cancer cell lines screening, Melanoma panel
UACC-257 = test: as above
BT-549 = test: NCIDTP 60 cancer cell lines screening, Breast Cancer panel
HCT-15 = test: NCIDTP 60 cancer cell lines screening, Colon Cancer panel

Structure (SMILES): Cc1ccc(C)c(COc2cc(NC(=O)c3ccc4c(c3)OCO4)ccc2N(C)S(C)(=O)=O)c1 [Compound #10, Benzo[1,3]dioxole-5-carboxylic acid [3-(2,5-dimethyl-benzyloxy)-4-(methanesulfonyl-methyl-amino)-phenyl]-amide]
- GI50 (MDA-MB-468; Homo sapiens, MDA-MB-468): 155 nM
- CC50 (MDA-MB-468; Homo sapiens, MDA-MB-468, read-out: LC50): 19900 nM
- TGI (MDA-MB-468; MDA-MB-468): 4.01E−7 Molar
- Percent Growth (MDA-MB-468; MDA-MB-468, Log10 Concentration −4.0 Molar): −56%
- Percent Growth (MDA-MB-468; MDA-MB-468, Log10 Concentration −5.0 Molar): −47%
- Percent Growth (MDA-MB-468; MDA-MB-468, Log10 Concentration −6.0 Molar): −48%
- Percent Growth (MDA-MB-468; MDA-MB-468, Log10 Concentration −7.0 Molar): 73%
- Percent Growth (MDA-MB-468; MDA-MB-468, Log10 Concentration −8.0 Molar): 85%
- TGI (LOX IMVI): >1.00E−4 Molar
- GI50 (LOX IMVI; Homo sapiens): 66.6 nM
- CC50 (LOX IMVI; Homo sapiens, read-out: LC50): > 100000 nM
- Percent Growth (LOX IMVI; Log10 Concentration −4.0 Molar): 26%
- Percent Growth (LOX IMVI; Log10 Concentration −5.0 Molar): 21%
- Percent Growth (LOX IMVI; Log10 Concentration −6.0 Molar): 13%
- Percent Growth (LOX IMVI; Log10 Concentration −7.0 Molar): 41%
- Percent Growth (LOX IMVI; Log10 Concentration −8.0 Molar): 91%
- TGI (CAKI-1; CAKI-1): >1.00E−4 Molar
- Percent Growth (CAKI-1; CAKI-1, Log10 Concentration −4.0 Molar): 5%
- Percent Growth (CAKI-1; CAKI-1, Log10 Concentration −5.0 Molar): 2%
- Percent Growth (CAKI-1; CAKI-1, Log10 Concentration −6.0 Molar): 16%
- Percent Growth (CAKI-1; CAKI-1, Log10 Concentration −7.0 Molar): 54%
- Percent Growth (CAKI-1; CAKI-1, Log10 Concentration −8.0 Molar): 100%
- GI50 (CAKI-1; Homo sapiens, CAKI-1): 126 nM
- CC50 (CAKI-1; Homo sapiens, CAKI-1, read-out: LC50): > 100000 nM
- TGI (786-0; 786-0): 1.11E−6 Molar
- Percent Growth (786-0; 786-0, Log10 Concentration −4.0 Molar): −14%
- Percent Growth (786-0; 786-0, Log10 Concentration −5.0 Molar): −22%
- Percent Growth (786-0; 786-0, Log10 Concentration −6.0 Molar): 1%
- Percent Growth (786-0; 786-0, Log10 Concentration −7.0 Molar): 69%
- Percent Growth (786-0; 786-0, Log10 Concentration −8.0 Molar): 91%
- GI50 (786-0; Homo sapiens, 786-0): 191 nM
- CC50 (786-0; Homo sapiens, 786-0, read-out: LC50): > 100000 nM
- GI50 (UO-31; Homo sapiens, UO-31): 395 nM
- CC50 (UO-31; Homo sapiens, UO-31, read-out: LC50): > 100000 nM
- TGI (UO-31; UO-31): >1.00E−4 Molar
- Percent Growth (UO-31; UO-31, Log10 Concentration −4.0 Molar): 14%
- Percent Growth (UO-31; UO-31, Log10 Concentration −5.0 Molar): 12%
- Percent Growth (UO-31; UO-31, Log10 Concentration −6.0 Molar): 35%
- Percent Growth (UO-31; UO-31, Log10 Concentration −7.0 Molar): 73%
- Percent Growth (UO-31; UO-31, Log10 Concentration −8.0 Molar): 78%
- GI50 (MDA-MB-435; Homo sapiens, MDA-MB-435): 28.5 nM
- CC50 (MDA-MB-435; Homo sapiens, MDA-MB-435, read-out: LC50): > 100000 nM
- TGI (MDA-MB-435; MDA-MB-435): 9.14E−8 Molar
- Percent Growth (MDA-MB-435; MDA-MB-435, Log10 Concentration −4.0 Molar): −17%
- Percent Growth (MDA-MB-435; MDA-MB-435, Log10 Concentration −5.0 Molar): −28%
- Percent Growth (MDA-MB-435; MDA-MB-435, Log10 Concentration −6.0 Molar): −30%
- Percent Growth (MDA-MB-435; MDA-MB-435, Log10 Concentration −7.0 Molar): −4%
- Percent Growth (MDA-MB-435; MDA-MB-435, Log10 Concentration −8.0 Molar): 95%
- GI50 (RXF 393; Homo sapiens, RXF 393): 128 nM
- CC50 (RXF 393; Homo sapiens, RXF 393, read-out: LC50): > 100000 nM
- TGI (RXF 393; RXF 393): 4.03E−7 Molar
- Percent Growth (RXF 393; RXF 393, Log10 Concentration −4.0 Molar): −18%
- Percent Growth (RXF 393; RXF 393, Log10 Concentration −5.0 Molar): −20%
- Percent Growth (RXF 393; RXF 393, Log10 Concentration −6.0 Molar): −39%
- Percent Growth (RXF 393; RXF 393, Log10 Concentration −7.0 Molar): 61%
- Percent Growth (RXF 393; RXF 393, Log10 Concentration −8.0 Molar): 81%
- TGI (SN12C): >1.00E−4 Molar
- GI50 (SN12C; Homo sapiens): 472 nM
- CC50 (SN12C; Homo sapiens, read-out: LC50): > 100000 nM
- Percent Growth (SN12C; Log10 Concentration −4.0 Molar): 23%
- Percent Growth (SN12C; Log10 Concentration −5.0 Molar): 22%
- Percent Growth (SN12C; Log10 Concentration −6.0 Molar): 30%
- Percent Growth (SN12C; Log10 Concentration −7.0 Molar): 91%
- Percent Growth (SN12C; Log10 Concentration −8.0 Molar): 96%
- GI50 (SK-OV-3; Homo sapiens, SK-OV-3): 285 nM
- CC50 (SK-OV-3; Homo sapiens, SK-OV-3, read-out: LC50): > 100000 nM
- TGI (SK-OV-3; SK-OV-3): >1.00E−4 Molar
- Percent Growth (SK-OV-3; SK-OV-3, Log10 Concentration −4.0 Molar): 5%
- Percent Growth (SK-OV-3; SK-OV-3, Log10 Concentration −5.0 Molar): 5%
- Percent Growth (SK-OV-3; SK-OV-3, Log10 Concentration −6.0 Molar): 8%
- Percent Growth (SK-OV-3; SK-OV-3, Log10 Concentration −7.0 Molar): 85%
- Percent Growth (SK-OV-3; SK-OV-3, Log10 Concentration −8.0 Molar): 99%
- GI50 (NCI-H226; Homo sapiens, NCI-H226): 686 nM
- CC50 (NCI-H226; Homo sapiens, NCI-H226, read-out: LC50): > 100000 nM
- TGI (NCI-H226; NCI-H226): >1.00E−4 Molar
- Percent Growth (NCI-H226; NCI-H226, Log10 Concentration −4.0 Molar): 16%
- Percent Growth (NCI-H226; NCI-H226, Log10 Concentration −5.0 Molar): 20%
- Percent Growth (NCI-H226; NCI-H226, Log10 Concentration −6.0 Molar): 42%
- Percent Growth (NCI-H226; NCI-H226, Log10 Concentration −7.0 Molar): 93%
- Percent Growth (NCI-H226; NCI-H226, Log10 Concentration −8.0 Molar): 87%
- GI50 (SW-620; Homo sapiens, SW-620): 112 nM
- CC50 (SW-620; Homo sapiens, SW-620, read-out: LC50): > 100000 nM
- TGI (SW-620; SW-620): >1.00E−4 Molar
- Percent Growth (SW-620; SW-620, Log10 Concentration −4.0 Molar): 16%
- Percent Growth (SW-620; SW-620, Log10 Concentration −5.0 Molar): 21%
- Percent Growth (SW-620; SW-620, Log10 Concentration −6.0 Molar): 19%
- Percent Growth (SW-620; SW-620, Log10 Concentration −7.0 Molar): 52%
- Percent Growth (SW-620; SW-620, Log10 Concentration −8.0 Molar): 92%
- cell death / cell viability, relation with calcium signal (cells): induces cell death that is at least partially related with calcium signal in the cells
- GI50 (SK-MEL-5; Homo sapiens, SK-MEL-5): 253 nM
- CC50 (SK-MEL-5; Homo sapiens, SK-MEL-5, read-out: LC50): 34100 nM
- TGI (SK-MEL-5; SK-MEL-5): 1.65E−6 Molar
- Percent Growth (SK-MEL-5; SK-MEL-5, Log10 Concentration −4.0 Molar): −57%
- Percent Growth (SK-MEL-5; SK-MEL-5, Log10 Concentration −5.0 Molar): −42%
- Percent Growth (SK-MEL-5; SK-MEL-5, Log10 Concentration −6.0 Molar): 12%
- Percent Growth (SK-MEL-5; SK-MEL-5, Log10 Concentration −7.0 Molar): 76%
- Percent Growth (SK-MEL-5; SK-MEL-5, Log10 Concentration −8.0 Molar): 90%
- TGI (ACHN): >1.00E−4 Molar
- GI50 (ACHN; Homo sapiens): 687 nM
- CC50 (ACHN; Homo sapiens, read-out: LC50): > 100000 nM
- Percent Growth (ACHN; Log10 Concentration −4.0 Molar): 23%
- Percent Growth (ACHN; Log10 Concentration −5.0 Molar): 26%
- Percent Growth (ACHN; Log10 Concentration −6.0 Molar): 45%
- Percent Growth (ACHN; Log10 Concentration −7.0 Molar): 75%
- Percent Growth (ACHN; Log10 Concentration −8.0 Molar): 95%
- GI50 (UACC-62; Homo sapiens, UACC-62): 414 nM
- CC50 (UACC-62; Homo sapiens, UACC-62, read-out: LC50): > 100000 nM
- TGI (UACC-62; UACC-62): >1.00E−4 Molar
- Percent Growth (UACC-62; UACC-62, Log10 Concentration −4.0 Molar): 14%
- Percent Growth (UACC-62; UACC-62, Log10 Concentration −5.0 Molar): 15%
- Percent Growth (UACC-62; UACC-62, Log10 Concentration −6.0 Molar): 37%
- Percent Growth (UACC-62; UACC-62, Log10 Concentration −7.0 Molar): 71%
- Percent Growth (UACC-62; UACC-62, Log10 Concentration −8.0 Molar): 94%
- GI50 (UACC-257; Homo sapiens, UACC-257): 144 nM
- CC50 (UACC-257; Homo sapiens, UACC-257, read-out: LC50): > 100000 nM
- TGI (UACC-257; UACC-257): >1.00E−4 Molar
- Percent Growth (UACC-257; UACC-257, Log10 Concentration −4.0 Molar): 13%
- Percent Growth (UACC-257; UACC-257, Log10 Concentration −5.0 Molar): 29%
- Percent Growth (UACC-257; UACC-257, Log10 Concentration −6.0 Molar): 32%
- Percent Growth (UACC-257; UACC-257, Log10 Concentration −7.0 Molar): 53%
- Percent Growth (UACC-257; UACC-257, Log10 Concentration −8.0 Molar): 88%
- TGI (BT-549; BT-549): >1.00E−4 Molar
- Percent Growth (BT-549; BT-549, Log10 Concentration −4.0 Molar): 21%
- Percent Growth (BT-549; BT-549, Log10 Concentration −5.0 Molar): 13%
- Percent Growth (BT-549; BT-549, Log10 Concentration −6.0 Molar): 45%
- Percent Growth (BT-549; BT-549, Log10 Concentration −7.0 Molar): 70%
- Percent Growth (BT-549; BT-549, Log10 Concentration −8.0 Molar): 92%
- GI50 (BT-549; Homo sapiens, BT-549): 656 nM
- CC50 (BT-549; Homo sapiens, BT-549, read-out: LC50): > 100000 nM
- TGI (HCT-15; HCT-15): >1.00E−4 Molar
- Percent Growth (HCT-15; HCT-15, Log10 Concentration −4.0 Molar): 17%
- Percent Growth (HCT-15; HCT-15, Log10 Concentration −5.0 Molar): 17%
- Percent Growth (HCT-15; HCT-15, Log10 Concentration −6.0 Molar): 22%
- Percent Growth (HCT-15; HCT-15, Log10 Concentration −7.0 Molar): 74%
- Percent Growth (HCT-15; HCT-15, Log10 Concentration −8.0 Molar): 96%
- GI50 (HCT-15; Homo sapiens, HCT-15): 289 nM
- CC50 (HCT-15; Homo sapiens, HCT-15, read-out: LC50): > 100000 nM
